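Growth conditions: 96-well plates. Treatment: test compound, 48 hours, 5 concentrations. Analysis: linear interpolation between bracketing concentrations; unreached endpoints set to highest concentration. Definition used: TGI = concentration required for complete inhibition of growth.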
What was measured:
Experiment in all cases: growth of human tumour cells (NCI), 48 h
SR leukemia = system: SR leukemia
HS 578T breast = system: HS 578T breast
HT29 colon = system: HT29 colon
PC-3 prostate = system: PC-3 prostate
MDA-MB-231 breast = system: MDA-MB-231 breast
SF-295 CNS = system: SF-295 CNS
NCI-H522 lung = system: NCI-H522 lung
K-562 leukemia = system: K-562 leukemia
HOP-62 NSCLC = system: HOP-62 NSCLC
OVCAR-4 ovarian = system: OVCAR-4 ovarian
SW-620 colon = system: SW-620 colon
LOX IMVI melanoma = system: LOX IMVI melanoma
U251 CNS = system: U251 CNS
HL-60(TB) leukemia = system: HL-60(TB) leukemia
MCF7 breast = system: MCF7 breast
MDA-N = system: MDA-N
RPMI-8226 leukemia = system: RPMI-8226 leukemia
BT-549 breast = system: BT-549 breast
SK-OV-3 ovarian = system: SK-OV-3 ovarian
UO-31 renal = system: UO-31 renal
HCT-116 colon = system: HCT-116 colon
SK-MEL-5 melanoma = system: SK-MEL-5 melanoma
NCI-H460 lung = system: NCI-H460 lung
HCT-15 colon = system: HCT-15 colon
COLO 205 colon = system: COLO 205 colon
SF-539 CNS = system: SF-539 CNS
M14 melanoma = system: M14 melanoma
SK-MEL-2 melanoma = system: SK-MEL-2 melanoma
MOLT-4 leukemia = system: MOLT-4 leukemia
OVCAR-5 ovarian = system: OVCAR-5 ovarian
DU-145 prostate = system: DU-145 prostate
A549 NSCLC = system: A549 NSCLC
SF-268 CNS = system: SF-268 CNS
SNB-19 CNS = system: SNB-19 CNS
OVCAR-8 ovarian = system: OVCAR-8 ovarian
UACC-62 melanoma = system: UACC-62 melanoma
CAKI-1 renal = system: CAKI-1 renal
OVCAR-3 ovarian = system: OVCAR-3 ovarian
RXF 393 renal = system: RXF 393 renal
786-0 renal = system: 786-0 renal
MALME-3M melanoma = system: MALME-3M melanoma
ACHN renal = system: ACHN renal
KM12 colon = system: KM12 colon
IGROV1 ovarian = system: IGROV1 ovarian
SK-MEL-28 melanoma = system: SK-MEL-28 melanoma
CCRF-CEM leukemia = system: CCRF-CEM leukemia
NCI/ADR-RES ovarian = system: NCI/ADR-RES ovarian
A498 renal = system: A498 renal
NCI-H23 lung = system: NCI-H23 lung
EKVX NSCLC = system: EKVX NSCLC
TK-10 renal = system: TK-10 renal
SN12C renal = system: SN12C renal
NCI-H226 lung = system: NCI-H226 lung
T-47D breast = system: T-47D breast
SNB-75 CNS = system: SNB-75 CNS
UACC-257 melanoma = system: UACC-257 melanoma
MDA-MB-435 = system: MDA-MB-435
HCC-2998 colon = system: HCC-2998 colon
HOP-92 NSCLC = system: HOP-92 NSCLC

Work on CCOC(=O)C12OC(CCC1=O)C(C(=O)OC)=C2C(=O)OC (configuration not stated) yielded a TGI (SR leukemia) of over 10 µM, a TGI (HS 578T breast) of over 10 µM and a TGI (HT29 colon) of over 10 µM. It also gave a TGI (PC-3 prostate) of over 10 µM, a TGI (MDA-MB-231 breast) of over 10 µM and a TGI (SF-295 CNS) of over 10 µM. For the same compound, the TGI (NCI-H522 lung) was over 10 µM, the TGI (K-562 leukemia) was over 10 µM and the TGI (HOP-62 NSCLC) was over 10 µM. It also gave a TGI (OVCAR-4 ovarian) of over 10 µM, a TGI (SW-620 colon) of over 10 µM and a TGI (LOX IMVI melanoma) of over 10 µM. It also gave a TGI (U251 CNS) of over 10 µM, a TGI (HL-60(TB) leukemia) of over 10 µM and a TGI (MCF7 breast) of over 10 µM. The TGI (MDA-N) was over 10 µM, the TGI (RPMI-8226 leukemia) was over 10 µM and the TGI (BT-549 breast) was over 10 µM. The TGI (SK-OV-3 ovarian) was over 10 µM, the TGI (UO-31 renal) was over 10 µM and the TGI (HCT-116 colon) was over 10 µM. It also gave a TGI (SK-MEL-5 melanoma) of over 10 µM, a TGI (NCI-H460 lung) of over 10 µM and a TGI (HCT-15 colon) of over 10 µM. It also gave a TGI (COLO 205 colon) of over 10 µM, a TGI (SF-539 CNS) of over 10 µM and a TGI (M14 melanoma) of over 10 µM. The TGI (SK-MEL-2 melanoma) was over 10 µM, the TGI (MOLT-4 leukemia) was over 10 µM and the TGI (OVCAR-5 ovarian) was over 10 µM. For the same compound, the TGI (DU-145 prostate) was over 10 µM, the TGI (A549 NSCLC) was over 10 µM and the TGI (SF-268 CNS) was over 10 µM. The TGI (SNB-19 CNS) was over 10 µM, the TGI (OVCAR-8 ovarian) was over 10 µM and the TGI (UACC-62 melanoma) was over 10 µM. It also gave a TGI (CAKI-1 renal) of over 10 µM, a TGI (OVCAR-3 ovarian) of over 10 µM and a TGI (RXF 393 renal) of over 10 µM. The TGI (786-0 renal) was over 10 µM, the TGI (MALME-3M melanoma) was over 10 µM and the TGI (ACHN renal) was over 10 µM. The TGI (KM12 colon) was over 10 µM, the TGI (IGROV1 ovarian) was over 10 µM and the TGI (SK-MEL-28 melanoma) was over 10 µM. The TGI (CCRF-CEM leukemia) was over 10 µM, the TGI (NCI/ADR-RES ovarian) was over 10 µM and the TGI (A498 renal) was over 10 µM. It also gave a TGI (NCI-H23 lung) of over 10 µM, a TGI (EKVX NSCLC) of over 10 µM and a TGI (TK-10 renal) of over 10 µM. For the same compound, the TGI (SN12C renal) was over 10 µM, the TGI (NCI-H226 lung) was over 10 µM and the TGI (T-47D breast) was over 10 µM. It also gave a TGI (SNB-75 CNS) of over 10 µM, a TGI (UACC-257 melanoma) of over 10 µM and a TGI (MDA-MB-435) of over 10 µM. The TGI (HCC-2998 colon) was over 10 µM.
Work on CCCCCCc1cc2cc(C(=O)Nc3ccccc3)c(=N)oc2cc1O yielded a TGI (SR leukemia) of over 26.3 µM, a TGI (HS 578T breast) of 20 µM and a TGI (HT29 colon) of over 32.1 µM. The TGI (PC-3 prostate) was over 30.3 µM, the TGI (MDA-MB-231 breast) was over 100 µM and the TGI (SF-295 CNS) was over 100 µM. For the same compound, the TGI (NCI-H522 lung) was 6.02 µM, the TGI (K-562 leukemia) was over 100 µM and the TGI (HOP-62 NSCLC) was 11.8 µM. For the same compound, the TGI (OVCAR-4 ovarian) was over 60.9 µM, the TGI (SW-620 colon) was over 100 µM and the TGI (LOX IMVI melanoma) was 12.5 µM. The TGI (U251 CNS) was over 33.6 µM, the TGI (HL-60(TB) leukemia) was over 100 µM and the TGI (MCF7 breast) was over 100 µM. It also gave a TGI (MDA-N) of over 34.3 µM, a TGI (RPMI-8226 leukemia) of over 100 µM and a TGI (BT-549 breast) of over 100 µM. The TGI (SK-OV-3 ovarian) was over 26.5 µM, the TGI (UO-31 renal) was 12.7 µM and the TGI (HCT-116 colon) was 6.59 µM. It also gave a TGI (SK-MEL-5 melanoma) of 8.41 µM, a TGI (NCI-H460 lung) of over 100 µM and a TGI (HCT-15 colon) of over 100 µM. For the same compound, the TGI (COLO 205 colon) was over 100 µM, the TGI (SF-539 CNS) was over 48.6 µM and the TGI (M14 melanoma) was over 29.4 µM. It also gave a TGI (SK-MEL-2 melanoma) of 14.7 µM, a TGI (MOLT-4 leukemia) of 8.79 µM and a TGI (OVCAR-5 ovarian) of over 100 µM. The TGI (DU-145 prostate) was over 100 µM, the TGI (A549 NSCLC) was over 37.5 µM and the TGI (SF-268 CNS) was over 100 µM. The TGI (SNB-19 CNS) was over 73.8 µM, the TGI (OVCAR-8 ovarian) was over 49.6 µM and the TGI (UACC-62 melanoma) was 40.1 µM. It also gave a TGI (CAKI-1 renal) of over 100 µM, a TGI (OVCAR-3 ovarian) of 5.1 µM and a TGI (RXF 393 renal) of over 100 µM. For the same compound, the TGI (786-0 renal) was over 35.8 µM, the TGI (MALME-3M melanoma) was 5.6 µM and the TGI (ACHN renal) was over 100 µM. For the same compound, the TGI (HOP-92 NSCLC) was over 100 µM, the TGI (KM12 colon) was 8.48 µM and the TGI (IGROV1 ovarian) was over 100 µM. It also gave a TGI (SK-MEL-28 melanoma) of over 100 µM, a TGI (CCRF-CEM leukemia) of over 37.9 µM and a TGI (NCI/ADR-RES ovarian) of over 100 µM. For the same compound, the TGI (A498 renal) was over 100 µM, the TGI (NCI-H23 lung) was 10.6 µM and the TGI (EKVX NSCLC) was over 100 µM. It also gave a TGI (TK-10 renal) of over 100 µM, a TGI (SN12C renal) of 6.97 µM and a TGI (NCI-H226 lung) of over 100 µM. For the same compound, the TGI (T-47D breast) was over 47.1 µM, the TGI (SNB-75 CNS) was over 100 µM and the TGI (UACC-257 melanoma) was over 100 µM. The TGI (MDA-MB-435) was 14.1 µM and the TGI (HCC-2998 colon) was 20.8 µM.
